In the assay the target is Wee1 (Homo sapiens (Human), UniProt P30291). The assay is described as follows: In vitro enzymatic inhibitory activity (33P-ATP filter-binding kinase assay, MBP substrate). Type of assay: biochemical. The note with it: Wee-1 150 nM, MBP 20 μM. The method, then:
The compounds of the present invention for experimental use were all self-prepared, and their chemical names and structural formulas are shown in the preparation embodiments of the respective compounds. The experimental tests were carried out in Reaction Biology Corporation, USA, and the experimental results were provided by the company. Basic reaction buffer: 20 mM hydroxyethylpiperazine ethanesulfuric acid (pH 7.5), 10 mM magnesium chloride, 1 mM EGTA, 0.02% Brij35, 0.02 mg/mL bovine serum albumin, 0.1 mM Na3VO4, 2 mM DTT, 1% DMSO Enzyme: Wee-1 concentration is 150 nM Matrix: MBP concentration is 20 μM The tested compound was formulated into a 5 mM solution with 100% DMSO, and a 10 points 3-fold gradient dilution was performed with DMSO through an automated pipetting station epMotion 5070. 1. Fresh matrix configuration reaction buffer was prepared; 2. The Wee-1 was added into the matrix solution and shaked gently; 3. DMSO solution of the compound were added into the kinase reaction mixture using an acoustic technique (Echo 550; nanoliter range) and incubated for 20 minutes at room temperature; 4. ^33P-ATP (specific activity, 10 μCi/μL) was added into the reaction mixture to stimulate the reaction; 5. Incubated for 2 hours at room temperature; 6. Kinase activity was detected by filter-binding method.

Wee1, sequence (P30291 whole entry): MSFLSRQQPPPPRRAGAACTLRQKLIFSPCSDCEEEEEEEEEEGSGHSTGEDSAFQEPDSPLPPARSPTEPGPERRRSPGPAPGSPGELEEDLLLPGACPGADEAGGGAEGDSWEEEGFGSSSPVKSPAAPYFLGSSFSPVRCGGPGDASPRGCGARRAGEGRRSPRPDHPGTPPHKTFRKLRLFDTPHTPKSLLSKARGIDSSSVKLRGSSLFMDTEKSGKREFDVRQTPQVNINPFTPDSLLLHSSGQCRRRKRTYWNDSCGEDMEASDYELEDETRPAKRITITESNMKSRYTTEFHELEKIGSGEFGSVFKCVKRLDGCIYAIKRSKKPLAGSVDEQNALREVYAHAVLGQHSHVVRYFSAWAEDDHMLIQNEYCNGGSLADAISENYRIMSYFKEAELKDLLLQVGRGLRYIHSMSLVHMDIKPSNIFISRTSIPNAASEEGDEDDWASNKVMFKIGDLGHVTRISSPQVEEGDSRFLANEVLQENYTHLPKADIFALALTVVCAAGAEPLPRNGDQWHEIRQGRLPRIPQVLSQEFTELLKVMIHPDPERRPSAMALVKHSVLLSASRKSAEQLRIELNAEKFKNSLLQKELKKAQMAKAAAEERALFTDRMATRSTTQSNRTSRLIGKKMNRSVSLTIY

Take `C=CCn1c(=O)c2cnc(Nc3ccc(N4CCC5(CCN(CC#N)CC5)CC4)cc3)nc2n1-c1cccc(C(C)(C)O)n1` [Compound 63, 2-(9-(4((2-allyl-1(6-(2-hydroxypropan-2-yl)pyridin-2-yl)-3-oxo-2,3-dihydro-1H-pyrazolo[3,4-d]pyrimidin-6-yl)amino)phenyl)-3,9-diazaspiro[5.5]undecan-3-yl)acetonitrile]: the half-maximal inhibitory concentration (IC50) – broadly, the point on the concentration scale where inhibition reaches its midpoint – came out at 8.3 nM.

In turn, `C=CCn1c(=O)c2cnc(Nc3ccc(N4CCC5(CCN(CCOC)CC5)CC4)cc3)nc2n1-c1cccc(C(C)(C)O)n1` [Compound 64, 2-allyl-1-(6-(2-hydroxypropan-2-yl)pyridin-2-yl)-6-((4-(9-(2-methoxylethyl)-3,9-diazaspiro[5.5]undecan-3-yl)phenyl)amino)-1H-pyrazolo[3,4-d]pyrimidin-3(2H)-one] showed an IC50 of 9.9 nM.

`C=CCn1c(=O)c2cnc(Nc3ccc(N4CCC5(CCN(C)CC5)CC4)cc3)nc2n1-c1cccc(C2(F)CC(F)(F)C2)n1` [Compound 65, 2-allyl-6((4-(9-methyl-3,9-diazaspiro[5.5]undecan-3-yl)phenyl)amino)-1-(6-(1,3,3-trifluorocyclobutyl)pyridin-2-yl)-1H-pyrazolo[3,4-d]pyrimidin-3(2H)-one] showed a concentration for half-maximal inhibition (IC50) of 41.6 nM.

Consider `C=CCn1c(=O)c2cnc(Nc3ccc(N4CCC5(CCN(C)CC5)CC4)cc3)nc2n1-c1cccc(C2(O)CC(F)(F)C2)n1` [Compound 66, 2-allyl-1-(6-(3,3-difluoro-1-hydroxycyclobutyl)pyridin-2-yl)-6-((4-(9-methyl-3,9-diazaspiro[5.5]undecan-3-yl)phenyl)amino)-1H-pyrazolo[3,4-d]pyrimidin-3(2H)-one], for which the IC50 was determined as 15 nM.

`C=CCn1c(=O)c2cnc(Nc3ccc(N4CCC5(CCN(C)CC5)CC4)cc3)nc2n1-c1cccc(C(C)C)n1` [Compound 67] returned a half-maximal inhibitory concentration (IC50) of 12.8 nM.

With `C=CCn1c(=O)c2cnc(Nc3ccc(N4CCC5(CCN(C)CC5)CC4)cc3)nc2n1-c1cccc(C2(C)CC2)n1` [Compound 68, 2-allyl-6-((4-(9-methyl-3,9-diazaspiro[5.5]undecan-3-yl)phenyl)amino)-1-(6-(1-methylcyclopropyl)pyridin-2-yl)-1H-pyrazolo[3,4-d]pyrimidin-3(2H)-one], the IC50 came to 30.4 nM.

In the case of `C=CCn1c(=O)c2cnc(Nc3ccc(N4CCC5(CC4)CCN(C4COC4)CC5)cc3)nc2n1-c1cccc(C(C)(C)O)n1` [Compound 69], the IC50 is 5.7 nM.

Molecule `C=CCn1c(=O)c2cnc(Nc3ccc(N4CCC5(CCN(C(=O)OC)CC5)CC4)cc3)nc2n1-c1cccc(C(=O)N(C)C)n1` [Compound 70, methyl-9-(4-((2-allyl-1-(6-(dimethylaminoformyl)pyridin-2-yl)-3-oxo-2,3-dihydro-1H-pyrazolo[3,4-d]pyrimidin-6-yl)amino)phenyl)-3,9-diazaspiro[5.5]undecan-3-carboxylate] had an IC50 of 20.3 nM.

In the case of `C=CCn1c(=O)c2cnc(Nc3ccc(N4CCC5(CCN(C(=O)OC)CC5)CC4)cc3)nc2n1-c1cccc(C2(O)COC2)n1` [Compound 71, methyl-9-(4-((2-allyl-1-(6-(3-hydroxyoxetan-3-yl)pyridin-2-yl)-3-oxo-2,3-dihydro-1H-pyrazolo[3,4-d]pyrimidin-6-yl)amino)phenyl)-3,9-diazaspiro[5.5]undecan-3-carboxylate], the IC50 was found to be 15.7 nM.

`C=CCn1c(=O)c2cnc(Nc3ccc(N4CCC5(CCN(C)CC5)CC4)cc3)nc2n1-c1cccc(N2CC(F)(F)C2)n1` [Compound 72] gave an IC50 of 8.2 nM.

With `C=CCn1c(=O)c2cnc(Nc3ccc(N4CCC5(CCN(C)CC5)CC4)cc3)nc2n1-c1cccc(C2(OC)COC2)n1` [Compound 73, 2-allyl-1-(6-(3-methoxyoxetan-3-yl)pyridin-2-yl)-6-((4-(9-methyl-3,9-diazaspiro[5.5]undecan-3-yl)phenyl)amino)-1H-pyrazolo[3,4-d]pyrimidin-3(2H)-one], the IC50 came to 5.3 nM.

The values above are taken from US10954253B2, “1,2-dihydro-3H-pyrazolo[3,4-d]pyrimidin-3-one derivative as Wee1 inhibitor” (SHIJIAZHUANG SAGACITY NEW DRUG DEVELOPMENT CO., LTD., priority 2017, dated 2021).
